The values that follow are results of earlier work, collected in patent US10925856B2, “Methods and compositions involving bucindolol for the treatment of atrial fibrillation” (priority 2018, dated 2021).

SMILES strings stand for the structures. Read-outs that look alike come from different tables or passages of the source.

This data set concerns advanced HFrEF patients (ADRB1 Arg389Gly / ADRA2C Ins322-325Del genotypes). The following applies: cited from earlier work.
Where [1] appears, read: BEST, {ADRA2C Del carrier and ADRB1 Arg389Arg}.
[2] abbreviates: BEST, {ADRA2C Del carriers and ADRB1 389Gly carriers}.

Regarding `CC(C)(Cc1c[nH]c2ccccc12)NCC(O)COc1ccccc1C#N` (stereo not drawn) [bucindolol, 2-(3-(1-(1H-indol-3-yl)-2-methylpropan-2-ylamino)-2-hydroxypropoxy)benzonitrile], the “Reduction in NE” value was 75 pg/mL (BEST trial at 12 weeks); 120 pg/mL (BEST, {ADRA2C Del carrier and ADRB1 Arg389Arg} combination genotype). Further, the “Decrease in NE (sympatholysis)” value by setting is: (BEST, ADRA2C Del genotypes) 153 pg/mL; (BEST, ADRA2C Ins homozygotes) 50 pg/mL. For the same molecule, under “BEST, ADRB1 Arg389Arg subset in permanent AF”, the “Effect sizes, time to ACM or HF hospitalization and CV mortality or CV hospitalization” value is reported as “exceeding 70%”. Moreover, under “BEST, ADRB1 Arg389Arg, sinus rhythm at baseline”, the “Reduction in the development (risk) of AF vs. placebo” value is given as 74%. For the same molecule, the “Hazard ratio, ACM, bucindolol vs. placebo” value was 0.50 under setting [1] and 1.04 under setting [2]. Besides, the “Hazard ratio, CVM, bucindolol vs. placebo” value by setting is: under setting [1], 0.40; under setting [2], 1.11. Further, the “Hazard ratio, heart failure hospitalization burden, bucindolol vs. placebo” value is 0.60 under setting [1] and 1.19 under setting [2].
